Experiments:
Design in all cases: scale not given: the % may be the effect or the level left
[1] = biological target: Mast/stem cell growth factor receptor Kit (Homo sapiens) (UniProt P10721); test: Inhibition of human c-Kit assessed as enzyme activity at 1 uM using poly[Glu:Tyr] (4:1) as substrate preincubated for 20 mins followed by [gamma-33P]-ATP addition and measured after 120 mins by radiometric Hot-SpotSM Kinase assay relative to control
[2] = biological target: Ribosomal protein S6 kinase alpha-4 (Homo sapiens) (UniProt O75676); test: Inhibition of human MSK2 assessed as enzyme activity at 1 uM using GRPRTSSFAEG as substrate preincubated for 20 mins followed by [gamma-33P]-ATP addition and measured after 120 mins by radiometric Hot-SpotSM Kinase assay relative to control
[3] = biological target: Serine/threonine-protein kinase pim-1 (Homo sapiens) (UniProt P11309); test: Inhibition of human PIM1 assessed as enzyme activity at 1 uM using RSRHSSYPAGT as substrate preincubated for 20 mins followed by [gamma-33P]-ATP addition and measured after 120 mins by radiometric Hot-SpotSM Kinase assay relative to control
[4] = biological target: T1, Bone morphogenetic protein receptor type-2 (Homo sapiens) (UniProt Q13873); test: Inhibition of human BMPR2 assessed as enzyme activity at 1 uM using myelin basic protein as substrate preincubated for 20 mins followed by [gamma-33P]-ATP addition and measured after 120 mins by radiometric Hot-SpotSM Kinase assay relative to control
T1 sequence (whole entry): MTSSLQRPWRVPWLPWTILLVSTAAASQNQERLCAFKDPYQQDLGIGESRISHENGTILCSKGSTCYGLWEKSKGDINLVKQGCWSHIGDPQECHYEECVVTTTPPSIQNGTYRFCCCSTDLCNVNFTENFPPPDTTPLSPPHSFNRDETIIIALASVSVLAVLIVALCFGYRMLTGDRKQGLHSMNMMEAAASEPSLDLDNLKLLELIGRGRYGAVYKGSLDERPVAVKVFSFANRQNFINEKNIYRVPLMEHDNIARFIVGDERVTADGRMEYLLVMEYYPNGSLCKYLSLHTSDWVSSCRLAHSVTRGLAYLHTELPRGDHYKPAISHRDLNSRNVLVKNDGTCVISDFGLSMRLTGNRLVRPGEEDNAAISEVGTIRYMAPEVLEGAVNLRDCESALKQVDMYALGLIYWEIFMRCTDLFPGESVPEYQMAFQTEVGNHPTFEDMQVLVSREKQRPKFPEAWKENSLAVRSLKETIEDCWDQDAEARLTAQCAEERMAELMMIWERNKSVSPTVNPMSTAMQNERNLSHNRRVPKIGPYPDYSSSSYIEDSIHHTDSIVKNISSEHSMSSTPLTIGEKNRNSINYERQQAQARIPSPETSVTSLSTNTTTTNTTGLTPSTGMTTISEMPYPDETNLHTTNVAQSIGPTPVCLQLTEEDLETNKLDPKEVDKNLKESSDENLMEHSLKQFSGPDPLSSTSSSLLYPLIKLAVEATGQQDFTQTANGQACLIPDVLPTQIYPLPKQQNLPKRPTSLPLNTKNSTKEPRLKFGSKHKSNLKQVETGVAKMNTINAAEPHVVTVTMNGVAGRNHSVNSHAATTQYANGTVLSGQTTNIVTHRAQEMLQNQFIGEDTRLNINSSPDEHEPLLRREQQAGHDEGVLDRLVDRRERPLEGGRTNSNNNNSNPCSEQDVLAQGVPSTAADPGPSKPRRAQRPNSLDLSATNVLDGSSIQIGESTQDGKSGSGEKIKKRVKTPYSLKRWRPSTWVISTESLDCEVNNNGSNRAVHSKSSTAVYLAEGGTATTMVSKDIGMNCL

[5] = biological target: CDK9/cyclin T1 (Homo sapiens) (UniProt O60563+P50750); test: Inhibition of human CDK9/cyclin T1 assessed as enzyme activity at 1 uM using KTFCGTPEYLAPEVRREPRILSEEEQEMFRDFDYIADWC as substrate preincubated for 20 mins followed by [gamma-33P]-ATP addition and measured after 120 mins by radiometric Hot-SpotSM Kinase assay relative to control; type: protein-complex assay
[6] = biological target: T2, Serine/threonine-protein kinase Nek3 (Homo sapiens) (UniProt P51956); test: Inhibition of human NEK3 assessed as enzyme activity at 1 uM using myelin basic protein as substrate preincubated for 20 mins followed by [gamma-33P]-ATP addition and measured after 120 mins by radiometric Hot-SpotSM Kinase assay relative to control
T2 sequence (whole entry): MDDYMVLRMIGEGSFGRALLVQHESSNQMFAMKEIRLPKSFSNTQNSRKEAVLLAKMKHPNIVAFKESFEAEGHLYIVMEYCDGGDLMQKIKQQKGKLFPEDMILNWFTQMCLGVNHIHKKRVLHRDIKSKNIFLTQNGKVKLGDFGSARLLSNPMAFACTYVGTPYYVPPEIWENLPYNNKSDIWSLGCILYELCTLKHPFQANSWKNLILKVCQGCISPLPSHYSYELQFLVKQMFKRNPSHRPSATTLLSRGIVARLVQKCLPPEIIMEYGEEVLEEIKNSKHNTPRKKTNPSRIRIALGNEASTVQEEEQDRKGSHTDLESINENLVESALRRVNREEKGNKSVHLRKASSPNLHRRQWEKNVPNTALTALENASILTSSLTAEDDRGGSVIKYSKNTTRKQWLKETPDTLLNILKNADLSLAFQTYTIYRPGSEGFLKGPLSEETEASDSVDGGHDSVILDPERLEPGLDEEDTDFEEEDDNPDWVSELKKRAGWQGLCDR

Ribosomal protein S6 kinase alpha-4 (Homo sapiens), sequence (O75676 whole entry, looked up): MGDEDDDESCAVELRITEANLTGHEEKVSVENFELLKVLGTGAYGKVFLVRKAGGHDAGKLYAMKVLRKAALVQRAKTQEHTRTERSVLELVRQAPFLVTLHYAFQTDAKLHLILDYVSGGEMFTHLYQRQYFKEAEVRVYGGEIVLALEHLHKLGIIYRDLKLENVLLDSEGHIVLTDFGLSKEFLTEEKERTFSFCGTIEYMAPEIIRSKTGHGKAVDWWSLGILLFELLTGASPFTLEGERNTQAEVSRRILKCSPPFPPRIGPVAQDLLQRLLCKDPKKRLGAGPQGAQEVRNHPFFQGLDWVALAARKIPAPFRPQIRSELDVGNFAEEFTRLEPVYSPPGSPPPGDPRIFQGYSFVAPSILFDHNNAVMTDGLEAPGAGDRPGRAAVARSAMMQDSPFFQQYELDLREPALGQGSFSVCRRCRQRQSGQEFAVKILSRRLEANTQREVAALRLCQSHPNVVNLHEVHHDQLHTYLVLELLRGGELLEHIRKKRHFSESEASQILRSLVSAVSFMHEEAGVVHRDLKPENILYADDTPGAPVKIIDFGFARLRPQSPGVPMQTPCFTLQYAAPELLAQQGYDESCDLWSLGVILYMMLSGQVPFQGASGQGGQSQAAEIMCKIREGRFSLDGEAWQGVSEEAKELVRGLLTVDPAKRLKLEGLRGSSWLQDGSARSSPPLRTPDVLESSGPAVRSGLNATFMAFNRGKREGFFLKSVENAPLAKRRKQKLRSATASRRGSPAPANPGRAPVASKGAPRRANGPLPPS
Mast/stem cell growth factor receptor Kit (Homo sapiens), sequence (P10721 whole entry): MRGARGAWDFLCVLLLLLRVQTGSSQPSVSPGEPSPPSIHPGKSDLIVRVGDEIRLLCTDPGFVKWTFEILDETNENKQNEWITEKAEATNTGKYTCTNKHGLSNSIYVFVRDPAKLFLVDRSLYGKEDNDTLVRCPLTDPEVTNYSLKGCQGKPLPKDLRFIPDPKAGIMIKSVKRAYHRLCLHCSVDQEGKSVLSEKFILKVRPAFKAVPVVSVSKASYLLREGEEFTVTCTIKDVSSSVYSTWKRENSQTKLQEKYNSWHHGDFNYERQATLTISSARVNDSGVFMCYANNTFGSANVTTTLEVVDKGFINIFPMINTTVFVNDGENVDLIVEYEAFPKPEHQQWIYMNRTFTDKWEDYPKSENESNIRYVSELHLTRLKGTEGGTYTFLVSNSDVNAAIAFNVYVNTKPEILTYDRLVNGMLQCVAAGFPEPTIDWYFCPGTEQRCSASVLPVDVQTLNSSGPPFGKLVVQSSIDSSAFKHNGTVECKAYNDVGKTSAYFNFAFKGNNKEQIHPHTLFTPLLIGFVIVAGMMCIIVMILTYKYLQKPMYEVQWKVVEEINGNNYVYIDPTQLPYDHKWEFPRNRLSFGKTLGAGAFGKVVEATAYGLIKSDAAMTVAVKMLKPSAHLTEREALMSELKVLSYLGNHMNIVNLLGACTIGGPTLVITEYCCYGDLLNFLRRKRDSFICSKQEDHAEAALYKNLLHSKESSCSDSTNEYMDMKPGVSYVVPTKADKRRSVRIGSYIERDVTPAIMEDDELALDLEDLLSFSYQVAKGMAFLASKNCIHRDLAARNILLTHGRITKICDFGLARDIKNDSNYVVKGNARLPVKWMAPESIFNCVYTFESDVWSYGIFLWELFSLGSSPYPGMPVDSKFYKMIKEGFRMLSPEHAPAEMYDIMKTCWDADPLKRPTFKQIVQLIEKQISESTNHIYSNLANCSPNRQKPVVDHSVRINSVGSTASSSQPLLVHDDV
Serine/threonine-protein kinase pim-1 (Homo sapiens), sequence (P11309 whole entry, looked up): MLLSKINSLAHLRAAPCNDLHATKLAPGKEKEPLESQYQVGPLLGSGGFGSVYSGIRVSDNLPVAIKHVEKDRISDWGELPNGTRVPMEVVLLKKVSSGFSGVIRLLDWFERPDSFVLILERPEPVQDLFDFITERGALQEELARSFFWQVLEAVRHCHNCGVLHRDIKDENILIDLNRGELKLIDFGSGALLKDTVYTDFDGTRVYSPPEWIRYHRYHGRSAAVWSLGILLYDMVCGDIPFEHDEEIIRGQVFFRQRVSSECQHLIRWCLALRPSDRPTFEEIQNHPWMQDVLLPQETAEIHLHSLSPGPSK

SMILES	Activity [1] [%]	Activity [2] [%]	Activity [3] [%]	Activity [4] [%]	Activity [5] [%]	Activity [6] [%]
CC[C@H](Nc1ncnc2[nH]cnc12)c1nc2cccc(F)c2c(=O)n1-c1ccccc1	99.4	98.1	99.6	107	89.5	93.9
C[C@H](Nc1ncnc2nc[nH]c12)c1cc2cccc(Cl)c2c(=O)n1-c1ccccc1	103	98.8	99.6	103	96.2	98.5
CC(C)Oc1ccc(-c2nn([C@@H](C)c3oc4ccc(F)cc4c(=O)c3-c3cccc(F)c3)c3ncnc(N)c23)cc1F [UMBRALISIB]	97.4	94.2	98.2	107	98.5	101

From ChEMBL document CHEMBL5715954, “Silencing c-Myc translation as a therapeutic strategy through targeting PI3Kδ and CK1ε in hematological malignancies” (Blood, 2017)
